The results in this text go back to patent US10597392B2, “Tetrahydropyridopyrazines as modulators of GPR6” (Takeda Pharmaceutical Corporation Limited, priority 2014, dated 2020).

The test system of one assay is Haloperidol-Induced Catalepsy. Kind of assay: Haloperidol-Induced Catalepsy, In Vivo Rodent Parkinson's Disease Model. The note with it: Rat, dose 1 mg/kg, sc. An excerpt: Haloperidol-Induced Catalepsy—In Vivo Rodent Parkinson's Disease Model
The motor symptoms of Parkinson's disease include akinesia, bradykinesia, rigidity, tremor and postural abnormalities and are associated with the loss of nigral dopaminergic cells and a decline in striatal dopamine levels. Administration of haloperidol to rodents leads to a transient parkinsonian-like state that is reversed by the administration of L-Dopa (Duty, S.; Jenner, P. Br. J. Pharmacol. (2011), 164, 1357-1391) and other drugs that have been clinically validated for the treatment of Parkinson's disease. Haloperidol antagonizes dopamine D2 and, to a lesser extent, D1 receptors in medium spiny neurons that comprise the indirect and direct pathways of the motor circuit respectively. The resultant block of striatal dopamine transmission results in abnormal downstream firing within the basal ganglia circuits that is manifest as symptoms of muscle rigidity and catalepsy. Catalepsy has been postulated to reflect the clinical features of Parkinson's disease, whereby patients experience an inability of to initiate movements.
Male Sprague-Dawley rats (Charles River, Calco, Italy) weighing 175-200 g are used. Alternatively, male C57Bl6 mice weighing 25-35 g were used. The cataleptic state was induced by the subcutaneous administration of the dopamine receptor antagonist haloperidol (0.3 mg/kg, sc), 90 min before testing the animals on the vertical grid test. […] The time span from placement of the paws until the first complete removal of one paw (descent latency) was measured maximally for 120 sec for rats. For mice, the front paws of a mouse was placed on a horizontal metal bar raised 2″ above a Plexiglas platform and time was recorded for up to 30 seconds per trial. […]
Catalepsy was measured 30 min, […], and/or […] after dosing the subjects a 1.0 mg/kg i.p. dose of haloperidol along with the GPR6 modulator test compound. Test compound plasma and brain levels were determined by collected tissue samples at the end of the experiment, which was either at the 120 or 240 min time point. […]
In the case of `Cc1cc2nc(NC3CC3)c(N3CCN(Cc4ccc(F)cc4F)CC3)nc2cn1` [Example 7, N-cyclopropyl-3-(4-(2,4-difluorobenzyl)piperazin-1-yl)-7-methylpyrido[3,4-b]pyrazin-2-amine], the “% reversal at 90 min” value is 33.5%.

The assay is the same for the next values; noted with them: Rat, dose 10 mg/kg, sc.
As to `Cc1cc2nc(NC3CC3)c(N3CCN(Cc4ccc(F)cc4F)CC3)nc2cn1` [Example 7, N-cyclopropyl-3-(4-(2,4-difluorobenzyl)piperazin-1-yl)-7-methylpyrido[3,4-b]pyrazin-2-amine], the “% reversal at 90 min” value turned out to be 63.6%.

Staying with this assay, now noted: Rat, dose 30 mg/kg, sc.
In the case of `Cc1cc2nc(NC3CC3)c(N3CCN(Cc4ccc(F)cc4F)CC3)nc2cn1` [Example 7, N-cyclopropyl-3-(4-(2,4-difluorobenzyl)piperazin-1-yl)-7-methylpyrido[3,4-b]pyrazin-2-amine], the “% reversal at 90 min” value is given as 42.8%.

In a further assay the target is T1, GPR6 receptor expressed in CHO-K1 cells (Homo sapiens, UniProt P46095).
T1 construct: expressed in transfected cells
T1 sequence (P46095 whole entry): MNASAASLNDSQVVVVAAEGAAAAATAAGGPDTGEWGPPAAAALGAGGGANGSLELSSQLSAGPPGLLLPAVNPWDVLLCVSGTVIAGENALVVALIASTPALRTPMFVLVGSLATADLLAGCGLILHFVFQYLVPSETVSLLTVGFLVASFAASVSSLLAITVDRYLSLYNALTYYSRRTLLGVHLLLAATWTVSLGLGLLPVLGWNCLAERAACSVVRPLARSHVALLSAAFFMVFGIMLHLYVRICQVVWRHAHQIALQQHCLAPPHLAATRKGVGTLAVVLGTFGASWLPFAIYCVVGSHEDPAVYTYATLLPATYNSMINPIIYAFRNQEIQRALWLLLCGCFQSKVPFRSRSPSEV
The assay can be described thus: Inhibition of cAMP Activity of GPR6 In Vitro Assay. It is filed as cell-based. The following applies: inhibition of constitutive cAMP activity of GPR6 in CHO-K1 cells, 45 min incubation, HTRF cAMP detection. The method, then: Inhibition of cAMP Activity of GPR6 In Vitro Assay
This cell based assay measures the ability of compounds to inhibit the constitutive cAMP activity of GPR6 receptor expressed in CHO-K1 cells. CHO cells were stably expressed with GPR6 receptor, whose expression is controlled by a tetracycline inducable element. The cells were cultured in medium containing F12K, 10% FBS, 1% Penn/Strep, 200 ug/mL Hygromycin. GPR6 receptor expression was induced for 20 hrs with 2 µg/ml doxycycline (sigma D9891) in growth media. After addition of doxycycline cells were plated at a density of 450-750 cells per well in 96-well half-volume black tissue culture plates (Costar) and placed in an incubator (37°, 5% CO2) for 20 hours prior to cAMP assays.
Culture media was removed from cells and they were washed with 50 µL/well of Ringer's Buffer (MgCl2 0.047 mg/mL, NaH2PO4 0.18 mg/mL, Na2HPO4 0.1 mg/mL, KCl 0.34 mg/mL, NaHCO3 1.26 mg/mL, D-glucose 1.8 mg/mL, NaCl 7 mg/mL; pH=7.4). Compounds suspended in DMSO were diluted in Ringer's Buffer containing 0.5% fatty acid free BSA plus 300 μM IBMX and incubated on cells for 45 min at 37° and 5% CO2. After incubation cells were incubated for 10 min at room temp with Eu-cAMP tracer solution from a Perkin Elmer Lance HTRF Ultra cAMP assay kit (TRF0263). Then ULight™-anti-cAMP solution from the Lance HTRF kit was added and incubated on a shaker at room temp for 1 hour prior to HTRF detection in a Perkin Elmer Envision plate reader.
IC50 curves were generated with a four-parameter logistic equation using GraphPad Prism 5.03.
(Time-resolved FRET reads energy transfer from a long-lived donor to a nearby acceptor.)
`Cc1cc2nc(N3CCC(Oc4ccc(F)cc4F)CC3)c(N[C@@H]3CCOC3)nc2cn1` [Example 36] showed a concentration for a half-maximal effect (EC50) of 76.3 nM. That is a double-digit nanomolar value.

Compound `Cc1cc2nc(N3CCC(Oc4ccc(F)cc4F)CC3)c(N[C@H]3CCOC3)nc2cn1` [Example 37, (S)-2-(4-(2,4-difluorophenoxy)piperidin-1-yl)-7-methyl-N-(tetrahydrofuran-3-yl)pyrido[3,4-b]pyrazin-3-amine] yielded a concentration giving a half-maximal response (EC50) of 128 nM.

In the case of `Cc1cc2nc(N3CCC(Oc4ccc(OC(F)F)cc4F)CC3)c(NC(C)C)nc2cn1` [Example 38, 2-(4-(4-(difluoromethoxy)-2-fluorophenoxy)piperidin-1-yl)-N-isopropyl-7-methylpyrido[3,4-b]pyrazin-3-amine], the concentration giving a half-maximal response (EC50) was determined as 309 nM.

Regarding `Cc1cc2nc(N3CCC(Oc4ccc(OC(F)F)cc4F)CC3)c(NC3CC3)nc2cn1` [Example 39, N-cyclopropyl-2-(4-(4-(difluoromethoxy)-2-fluorophenoxy)piperidin-1-yl)-7-methylpyrido[3,4-b]pyrazin-3-amine], the concentration giving a half-maximal response (EC50) is above 5000 nM.

For the compound `Cc1cc2nc(N3CCC(Oc4ccc(OC(F)F)cc4F)CC3)c(N[C@@H]3CCOC3)nc2cn1` [Example 40, (R)-2-(4-(4-(difluoromethoxy)-2-fluorophenoxy)piperidin-1-yl)-7-methyl-N-(tetrahydrofuran-3-yl)pyrido[3,4-b]pyrazin-3-amine], the EC50 is above 1000 nM.

In turn, `Cc1cc2nc(N3CCC(Oc4ccc(OC(F)F)cc4F)CC3)c(N[C@H]3CCOC3)nc2cn1` [Example 41, (S)-2-(4-(4-(difluoromethoxy)-2-fluorophenoxy)piperidin-1-yl)-7-methyl-N-(tetrahydrofuran-3-yl)pyrido[3,4-b]pyrazin-3-amine] came in with an EC50 above 1000 nM.

As for `COc1ccc(CN2CCN(c3nc4cc(C)ncc4nc3NC(C)C)CC2)c(F)c1` [Example 42, 2-(4-(2-fluoro-4-methoxybenzyl)piperazin-1-yl)-N-isopropyl-7-methylpyrido[3,4-b]pyrazin-3-amine], the midpoint of the response, the EC50, lay at 276 nM.

On to `COc1ccc(CN2CCN(c3nc4cc(C)ncc4nc3NC3CC3)CC2)c(F)c1` [Example 43, N-cyclopropyl-2-(4-(2-fluoro-4-methoxybenzyl)piperazin-1-yl)-7-methylpyrido[3,4-b]pyrazin-3-amine], for which the EC50 was above 1000 nM.

Compound `COc1ccc(CN2CCN(c3nc4cc(C)ncc4nc3N[C@@H]3CCOC3)CC2)c(F)c1` [Example 44, (R)-2-(4-(2-fluoro-4-methoxybenzyl)piperazin-1-yl)-7-methyl-N-(tetrahydrofuran-3-yl)pyrido[3,4-b]pyrazin-3-amine] registered a 50% effective concentration (EC50) above 1000 nM.

`COc1ccc(CN2CCN(c3nc4cc(C)ncc4nc3N[C@H]3CCOC3)CC2)c(F)c1` [Example 45, (S)-2-(4-(2-fluoro-4-methoxybenzyl)piperazin-1-yl)-7-methyl-N-(tetrahydrofuran-3-yl)pyrido[3,4-b]pyrazin-3-amine]: the 50% effective concentration (EC50) is above 1000 nM.

`Cc1cc2nc(N3CCN(Cc4ccc(OC(F)F)cc4F)CC3)c(NC(C)C)nc2cn1` [Example 46, 2-(4-(4-(difluoromethoxy)-2-fluorobenzyl)piperazin-1-yl)-N-isopropyl-7-methylpyrido[3,4-b]pyrazin-3-amine] had an EC50 above 1000 nM.

`Cc1cc2nc(N3CCN(Cc4ccc(OC(F)F)cc4F)CC3)c(NC3CC3)nc2cn1` [Example 47, N-cyclopropyl-2-(4-(4-(difluoromethoxy)-2-fluorobenzyl)piperazin-1-yl)-7-methylpyrido[3,4-b]pyrazin-3-amine]: the EC50 was above 1000 nM.

Take `Cc1cc2nc(N3CCN(Cc4ccc(OC(F)F)cc4F)CC3)c(N[C@@H]3CCOC3)nc2cn1` [Example 48, (R)-2-(4-(4-(difluoromethoxy)-2-fluorobenzyl)piperazin-1-yl)-7-methyl-N-(tetrahydrofuran-3-yl)pyrido[3,4-b]pyrazin-3-amine]: the EC50 is above 1000 nM.

For `Cc1cc2nc(N3CCN(Cc4ccc(OC(F)F)cc4F)CC3)c(N[C@H]3CCOC3)nc2cn1` [Example 49, (S)-2-(4-(4-(difluoromethoxy)-2-fluorobenzyl)piperazin-1-yl)-7-methyl-N-(tetrahydrofuran-3-yl)pyrido[3,4-b]pyrazin-3-amine], the EC50 was above 1000 nM.

In turn, `Cc1cc2nc(N3CCN(Cc4ccc(F)cc4F)CC3)c(NC3COC3)nc2cn1` [Example 50, 2-(4-(2,4-difluorobenzyl)piperazin-1-yl)-7-methyl-N-(oxetan-3-yl)pyrido[3,4-b]pyrazin-3-amine] displayed an EC50 of 164 nM. This counts as sub-micromolar.

As usually defined, the EC50 is the concentration that produces a half-maximal response. Low values mean a more potent agent, high ones a less potent agent.
